{"source": "patent US7273964B1", "about": "“Non-human transgenic animals for the study of neurodegenerative syndromes” (Scuola Internazionale Superiore Di Studi Avanzati, priority 1999, dated 2007)", "key": {"[1]": {"tested_on": "visual cortex slices of anti-NGF mice", "assay": "Long Term Potentiation (LTP) in visual cortex slices, electrophysiological recordings", "design": "species or system mouse", "conditions": "12 µg/animal/day for 4 weeks", "experimental": "Visual cortex slices preparation and electrophysiological recordings. Postsynaptic field potentials were recorded in […] in vitro slices containing visual cortex, following previously described methods (Kirkwood and Bear, 1994). Anti-NGF and transgenic control mice were deeply anesthetized with urethane and then decapitated. The brain was rapidly removed and visual cortex slices (400 μm) prepared and superfused in a submerged recording chamber at 33° C. with gassed artificial cerebrospinal fluid (aCSF) at a rate of 4 ml/min.\nThe amplitude of the maximum negative field potential in layer 2/3 was used as a measure of the evoked population excitatory current. LTP was induced by 3 trains of high frequency stimulation (HFS, 100 Hz, 1 s). Experiments were performed at different postnatal ages 6 months, when the functional maturation of the visual cortex is completed. Acetylcholine dependence of LTP was investigated by locally delivering through the recording pipette. […] The magnitude of both LTP was measured starting 30 min after the end of the corresponding conditioning protocol. Data for each experimental group were pooled and expressed as percentage change from control baseline, PCCB±S.E.M. Statistical comparison was done by applying a t-test and Mann-Whitney Rank Sum Test between baseline and LTP mean values."}, "free NGF": {"tested_on": "free NGF", "assay": "Determination of free NGF by ELISA", "assay_type": "in vivo, mouse", "experimental": "Determination of free NGF. The levels of free NGF (i.e. NGF not bound to the transgenic antibodies) in the different tissues was determined by an ELISA assay. This assay exploits the property of αD11 antibody to recognize NGF in a two-site ELISA format 16. Samples of blood serum or of tissue extracts (derived as in Molnar et al., 1998) were added to wells coated with mAb αD11 (coating concentration of […]). After incubation for 2 hours at r.t. and extensive washing with PBS-0.05% Tween 20, followed by PBS, free NGF, not engaged with transgenic αD11, was detected using an affinity-purified rabbit anti-NGF polyclonal antiserum."}, "anti-NGF mice [2]": {"tested_on": "anti-NGF mice", "assay": "Number of ChAT-positive neurons in the basal forebrain (immunohistochemistry, stereology)", "assay_type": "in vivo, mouse", "experimental": "(§1) Peptide 18 treatment. Prior to the injections, phages carrying the peptide 18 or a peptide raised against NT-3 (negative control) were amplified by infecting 2.5 ml of an overnight colture of DH5alpha F′ bacteria with 5 ml of phage supernatant in 1 liter of 2TY. After an overnight incubation at 30° C., bacteria were removed by centrifugation at 6000 rpm for 20 min at 4° C. Phage particles were precipitated by adding 1 volume of PEG/NaCl (20% PEG6000, 2.5 M NaCl) to 5 volumes of the supernatant. After mixing, the solution was left stand overnight at 4° C. and spinned at […] for 30 min. The pellet was resuspended in 40 ml of […], kept at 65° C. and then spun for 5 min at 11000 rpm.\nOne volume of PEG/NaCl was mixed to 5 volumes of the phage containing supernatant and incubated for 2 hrs at 4° C. After spinning at 11000 rpm for 5 min., the pellet was resuspended in PBS, spun again to remove cell debris and filtered through a 0.22 μm sterile filter. The phage suspension was then titred by infecting 100 μl of an overnight colture of DH5α F′, mixed with LB top agar and plated on LB plates. Phages carrying the carrying the peptide 18 or a peptide binder of anti-NT-3 (10^9–10^12 pfu/μl) were injected in both lateral ventricles. Phages were injected at postnatal day 53 (P53) and mice were killed 1 week after the injection. For the injection, mice were anaesthetised with 2,2,2-Tribromoethanol (0.2 ml/10 g body weight of a 1.2% solution). One μl of phage suspension was injected using a 17 gauge needle connected to a 10 μl Hamilton by a polyethylene cannula, 1 mm lateral and 1 mm anterior to Bregma. After the injection, animals were treated with ampicillin (1 mg/kg) every day, in order to prevent any bacterial infection. Experiment were performed three times for a total number of animals equal to 14 for each group of treatment.\nL-thyroxine treatment. […]\nQuantitative stereology. The volume of basal forebrain and the number of BFCNs was evaluated in 9 anti-NGF transgenic mice and 8 transgenic controls by using a stereological approach (Ruberti, 2000)."}, "anti-NGF mice [3]": {"tested_on": "anti-NGF mice", "assay": "AT8 (phosphorylated tau) immunohistochemistry in entorhinal cortex", "assay_type": "in vivo, mouse", "experimental": "as §1\nOne volume of PEG/NaCl was mixed to 5 volumes of the phage containing supernatant and incubated for 2 hrs at 4° C. After spinning at 11000 rpm for 5 min., the pellet was resuspended in PBS, spun again to remove cell debris and filtered through a 0.22 μm sterile filter. The phage suspension was then titred by infecting 100 μl of an overnight colture of DH5α F′, mixed with LB top agar and plated on LB plates. Phages carrying the carrying the peptide 18 or a peptide binder of anti-NT-3 (10^9–10^12 pfu/μl) were injected in both lateral ventricles. Phages were injected at postnatal day 53 (P53) and mice were killed 1 week after the injection. […]"}, "anti-NGF mice [4]": {"tested_on": "anti-NGF mice", "assay": "Restoration of the cholinergic phenotype in the basal forebrain of anti-NGF mice by NGF (minipump or NGF-secreting fibroblasts, lateral ventricle)", "assay_type": "in vivo, mouse", "conditions": "2 months-old anti-NGF mice; NGF into lateral ventricle", "experimental": "The restoration of the cholinergic phenotype in the basal forebrain was achieved by two different approaches. In a first set of experiments, NGF was delivered using slow releasing minipumps (Alzet, USA) A rubber capillary tube was inserted in the lateral ventricle and then connected by means of an osmotic minipump to a <> of the subcutaneous layer. This pump was filled by NGF (30–100 μg) diluted with Ringer-Locke physiological saline. Experiments were performed in 2 months-old transgenic mice and controls.\nIn another set of experiments, animals of the same age of previous ones were treated by an implant of fibroblasts genetically modified to secrete NGF. The fibroblasts were injected in the lateral ventricle at a 2×10^5 cells/μl concentration. The injection volume was 1.5 μl/animal. This second method allowed to verify, by ELISA, the constancy of NGF production over 4 weeks after the implantation."}, "[5]": {"tested_on": "gastrocnemius muscle of anti-NGF mice", "assay": "Reversibility of the muscular dystrophy in anti-NGF mice by NGF local administration", "assay_type": "in vivo, mouse", "conditions": "45 day old anti-NGF mice, 7, 15 and 30 days after injection", "experimental": "All the experiments were carried out on 45 day old mice, when the serum level of the anti-NGF antibody is still not at the highest level (observed 60 days after the birth). The NGF was administered locally by different methods: (a) by intramuscular injection of NGF, (b) by intramuscular injection of a viral recombinant vector (adenovirus) encoding for NGF cDNA or (c) by the implant of NGF secreting fibroblasts. All the administration routes included the injection or implant in the gastrocnemius muscle, one of the skeletal muscles affected by muscular dystrophy. The injections and implants were carried out on the right leg, while the gastrocnemius muscle of the left leg was used as control. A) NGF was injected as pellet, consisting of diazocellulose mixed NGF in borate buffer at pH 8.0 for 72 hours and following neutralisation by glycine saturated solution (Hendry, 1982). This method allows the exact localisation and slow release of this neurotrophin. Different NGF concentrations were used, comprised in the range from […] and 2 mg for each animal. […]\nTo verify the effect of the NGF administration the animals were sacrificed 7, 15 and 30 days after the injection. The injected and contralateral muscles were collected and analysed by histological and immunohistochemical techniques to verify the attenuation of the dystrophy and the restoration of usual innervation."}, "αD11 antibody": {"tested_on": "αD11 antibody", "assay": "Phage ELISA assay", "assay_type": "binding", "conditions": "phages selected against αD11", "experimental": "Phage ELISA assay. Ninety-six well plates were coated with 100 μl of rat anti-pill monoclonal antibody (57D1, gift by P. Delmastro) diluted in coating buffer (1 μg/ml 50 mM carbonate buffer pH 9.6) and incubated overnight at 4° C. Palts were washed in PBST and blocked in 5% milk/PBST for 1 h at 37° C. on a rocking platform. After 1 brief wash, a mixture of cleared phage supernatant (50 μl) and 50 μl of 5% milk/PBST was added and incubated for 1 h at 37° C. The plates were washed and 100 μl of αD11 antibody dilution (1 μg/ml in 5% milk/PBS) were added and left overnight at 4° C. After washing, an alkaline phosphatase conjugated anti-mouse antibody was added and left at 4° C. for 4 hrs. The reaction was developed by adding 200 μl of the substrate solution (10% dietanolamine, 5 mM MgCl2 pH 9.6) for 2 min followed by an incubation at 37° C. for 1 h in 100 μl of developing solution (1 mg/ml NTB in 10% dietanolamine, 5 mM MgCl2, pH 9.6).\nPositive phage clones were analyzed by the single strand DNA sequencing. The positive phage clones were sequenced and re-tested using dot blot experiments towards the αD11 antibody. At least twenty were analyzed."}, "[6]": {"conditions": "intraperitoneal, daily from P45 to P62"}, "[7]": {"conditions": "intraperitoneal, 10 μg daily from P45 to P62"}, "[8]": {"conditions": "phage injected intraventricularly"}}, "note": "Entries after “also recorded” stand apart in the source; their conditions may differ."}
{"compound": "N[C@@H](Cc1cc(I)c(Oc2cc(I)c(O)c(I)c2)c(I)c1)C(=O)O", "note": "[LT4, L-thyroxine, reference compound]", "values": [{"measurement": "rescue of synaptic plasticity (LTP)", "setting": "[1]", "value": "only a mild rescue"}, {"measurement": "free NGF in brain, blood serum and submandibular gland, compared with transgenic control", "setting": "free NGF; [6]", "value": "reached almost the levels detectable in transgenic control animals"}, {"measurement": "free NGF in brain, blood serum and submandibular gland, compared with vehicle", "setting": "free NGF; [6]", "value": "higher than that detected in animals treated with vehicle"}, {"measurement": "number of ChAT-positive neurons in the basal forebrain, compared with transgenic control", "setting": "anti-NGF mice [2]; [7]", "value": "equal to that observed in transgenic control animals"}, {"measurement": "number of ChAT-positive neurons, increase over not-treated or vehicle-treated anti-NGF mice", "setting": "anti-NGF mice [2]; [7]", "value": 40, "unit": "%"}, {"measurement": "AT8 labeling in the somatic compartment of neurons of the entorhinal cortex", "setting": "anti-NGF mice [3]; [6]", "value": "disappearance of AT8 labeling"}]}
{"compound": "NGF: Nerve Growth Factor, neurotrophin, given as pellet, adenoviral cDNA vector, minipump infusion or via NGF-secreting fibroblasts", "values": [{"measurement": "ChAT expression in nuclei of the basal forebrain and behaviour (cholinergic phenotype)", "setting": "anti-NGF mice [4]", "value": "phenotype reversibility to be observed"}, {"measurement": "muscle fibre morphology and cholinergic and peptidergic innervation", "setting": "[5]", "value": "re-assumed an usual appearance"}]}
{"compound": "RGSRHDL [peptide 18]", "values": [{"measurement": "free NGF in blood serum and submandibular gland", "setting": "free NGF; [8]", "value": "equal to animals treated with the non related peptide binder of anti-NT-3"}, {"measurement": "free NGF in brain", "setting": "free NGF; [8]", "value": "increase only at the level basal forebrain"}, {"measurement": "number of ChAT positive neurons in the basal forebrain", "setting": "anti-NGF mice [2]; phage injected in both lateral ventricles at P53, killed 1 week later", "value": "restored"}, {"measurement": "AT8 labeling (hyperphosphorylated tau) in the somatic compartment of neurons of the entorhinal cortex", "setting": "anti-NGF mice [3]; phage injected intraventricularly at P53", "value": "not paralleled by the disappearance of AT8 labeling; also recorded: decreases the expression in the soma"}, {"measurement": "binding activity of phage clone to αD11", "setting": "αD11 antibody", "value": "stronger binding activity"}]}
